Assay results reported in PMC4609936, “Pharmacologically targeted NMDA receptor antagonism by NitroMemantine for cerebrovascular disease” (Scientific Reports, 2015).
Where two headings read alike, the source gives them in different places.

Experiments:
[1] = system: NMDAR-mediated component of the EPSC; experiment: Evoked EPSCs in hippocampal autapses, whole-cell recording; assay type: cell-based, rat
LTP in hippocampal CA1 = experiment: LTP in hippocampal slices by field recordings; assay type: cell-based; settings: 10 μM, high-frequency burst, rat hippocampal slices
[2] = biological target: GluN1(N616R)/GluN2A channels (Homo sapiens, UniProt Q05586+Q12879, N616R); experiment: Oocyte voltage clamp, redox effect on memantine binding site mutant; assay type: cell-based; settings: for effect of GluN1(N616R) mutation on inhibition of current via S-nitrosylation: 200 µM
Description: (§1) Two-electrode voltage clamp recordings at −60 or −70 mV were made on oocytes in frog Ringer’s solution two to seven days after injection of NMDAR subunits. Recordings were performed with an Oocyte Clamp OC-725b amplifier (Warner Instrument Corporation, Hamden, CT) using MacLab version 3.5 software (AD Instruments, Milford, MA) at room temperature. […] Both electrodes were filled with 3 M KCl. A solution containing 90 mM NaCl, 1 mM KCl, 10 mM HEPES, 1.5 mM BaCl2, and 10–100 μM glycine, pH 7.5 was used to continuously superfuse the oocytes. Barium, rather than calcium, was used as the divalent cation in order to minimize secondary activation of Ca^2+-activated Cl^− current. In some experiments, 1.2 mM MgCl2 was added to the bath solution. Drugs were dissolved in frog Ringer’s solution and applied by superfusion at a 2 ml/min flow rate. In some cases, to achieve relatively rapid solution exchange, we used an array of pipettes similar to the “sewer pipe” system used in patch-clamp recording. Perfusion artifacts were digitally removed from the traces.
Mutant NMDAR subunits were prepared using the Chameleon^TM double-stranded site-directed mutagenesis kit (Stratagene) according to the manufacturer’s instructions. The entire coding region was sequenced to verify the mutation.

[3] = biological target: recombinant GluN1/GluN2A receptors (Homo sapiens, UniProt Q05586+Q12879); experiment: Two-electrode voltage clamp of oocytes, channel block of NMDA-induced current; assay type: cell-based; settings: for steady-state channel block of NMDA current: 10 μM (equimolar), Vh −70 mV; for IC50: steady-state, short-term drug addition, holding potential −70 mV, nominal absence of extracellular Mg2+, read-out: IC50 of inhibiting NMDA-induced current
Description: […] Recordings were performed with an Oocyte Clamp OC-725b amplifier (Warner Instrument Corporation, Hamden, CT) using MacLab version 3.5 software (AD Instruments, Milford, MA) at room temperature. […] Both electrodes were filled with 3 M KCl. A solution containing 90 mM NaCl, 1 mM KCl, 10 mM HEPES, 1.5 mM BaCl2, and 10–100 μM glycine, pH 7.5 was used to continuously superfuse the oocytes. Barium, rather than calcium, was used as the divalent cation in order to minimize secondary activation of Ca^2+-activated Cl^− current. In some experiments, 1.2 mM MgCl2 was added to the bath solution. Drugs were dissolved in frog Ringer’s solution and applied by superfusion at a 2 ml/min flow rate. In some cases, to achieve relatively rapid solution exchange, we used an array of pipettes similar to the “sewer pipe” system used in patch-clamp recording. Perfusion artifacts were digitally removed from the traces.

[4] = system: spontaneously hypertensive rats (SHR); experiment: Physiological parameters during stroke; assay type: in vivo, rat; settings: loading dose, n = 18 SHR
developing cerebrocortex = experiment: Cerebrocortical apoptosis by TUNEL in neonatal rats; assay type: in vivo; settings: P7 rat pups, loading dose, 24 h later
[5] = system: spontaneously hypertensive rats (SHR); experiment: tMCAO/R focal cerebral ischemia, infarct size by TTC staining; assay type: in vivo, rat; settings: for histological protection (infarct size) at equimolar dose: MFD of NitroMemantine (65.8 μmol/kg loading, 3.29 μmol/kg maintenance); for histological protection (infarct, TTC staining): loading i.p. 2-h post occlusion: memantine 90.3 μmol/kg, NitroMemantine 65.8 μmol/kg, maintenance 12 h later, sacrificed at 24 h
Description: Because of their known propensity to stroke, similar to human patients with hypertension, we used spontaneous hypertensive rats (SHR, Harlan) to induce tMCAO/R with the intraluminal suture method. Male 200–300 g SHR were anesthetized with 3% isoflurane in 30% oxygen/70% nitrous oxide using an anesthetic vaporizer and flowmeter. Body temperature was maintained at 37 °C with a homeothermic temperature system. A laser Doppler monitor was used to monitor relative cerebral blood flow (rCBF) during the surgical procedure and recovery. rCBF measurements were made immediately after anesthesia, after occlusion of the MCA, just before, and immediately after withdrawal of the suture to initiate reperfusion. To initiate a stroke, a midline incision was made to expose the right common carotid, external carotid, and internal carotid arteries. The occipital artery branches of the external carotid artery were isolated and along with the terminal lingual and maxillary artery branches coagulated with an electrocautery unit. The internal carotid artery was isolated and carefully separated from the adjacent vagus nerve. The pterygopalatine artery was ligated close to its origin, two loosely tied sutures placed around the external carotid artery stump, and a microaneurysm clip applied to the external carotid artery near its bifurcation with the internal carotid artery. A small puncture opening was made in the external carotid artery, a monofilament (intraluminal suture) inserted through the opening, and the sutures tightened around the lumen containing the filament. The microaneurysm clip was removed from the external carotid artery and the monofilament gently advanced from the lumen of the external carotid artery into the internal carotid artery for a distance of ~19 to 20 mm beyond the bifurcation of the common carotid artery until the blood flow dropped (≥80% reduction by rCBF measurement). The suture around the external carotid artery stump was tightened to prevent bleeding. After 2 h, sutures were removed, the filament withdrawn and the incision sutured removed, with rCBF recovering at least 75% at reperfusion. Just prior to reperfusion, rats were administered memantine, NitroMemantine, or memantine-OH via i.p. injection in saline vehicle or an equivalent volume of vehicle alone. […] Maintenance doses (4.63 μmol/kg of memantine and 3.29 μmol/kg of NitroMemantine, equivalent to 1 mg/kg or each) were administered 12 h after the loading dose. […] In subsequent experiments, equimolar memantine, NitroMemantine YQW-036, or memantine-OH was used using the lower NitroMemantine dose described above. The rodents were sacrificed 24-h post occlusion, and the size of brain infarct was evaluated histologically by 2,3,5-triphenyl-2H-tetrazolium chloride (TTC) staining.

GluN1/GluN2A NMDARs = experiment: Oocyte voltage clamp, redox (S-nitrosylation) mediated inhibition of NMDA-evoked current; assay type: cell-based
Description: as §1

[6] = system: spontaneously hypertensive rats (SHR); experiment: Morris water maze; assay type: in vivo, rat; settings: neuroprotective doses: 65.8 μmol/kg loading i.p., 3.29 μmol/kg every 12 h
Description: Adult male spontaneously hypertensive rats (SHR) were treated with either PBS or NitroMemantine (65.8 μmol/kg loading dose, i.p., followed by a 3.29 μmol/kg maintenance dose every 12 h). Each group was comprised of five rats (n = 5). Treatment for both groups commenced 48 h prior to the first day of testing. Both the treatment and water-maze testing were conducted in a blinded fashion. The water maze consisted of a circular pool 150 cm in diameter and 85 cm deep. The pool was filled to cover a moveable platform, black in color, by 1 cm of water. The water was made opaque via the addition of black paint and maintained at room temperature (20–23 °C) for the duration of the five days of testing. A white pool with black water allowed the video camera to successfully track the white rats with maximum contrast. On day 1, the rats were placed in the pool with no platform for 60 s of acclimation. Days 2 through 5 were used for testing. Starting on day 2 and continuing to day 5, rats were trained for 24 total trials (six trials/day) to locate and reach the submerged platform. The platform was kept in the same location for all trials in each session (day), but changed from session to session in a pre-determined order, yielding four unique locations in all. In addition, there were four possible release locations (the four cardinal compass directions at the pool’s perimeter). […]

Aqueous solubility = assay type: physicochemical
[7] = biological target: NMDA-evoked currents in primary rat cortical neurons (Rattus norvegicus, UniProt P35439); experiment: Whole-cell patch clamp of NMDA-evoked currents in primary rat cortical neurons; assay type: cell-based; settings: 5 μM, −75 mV and +30 mV
[8] = system: spontaneously hypertensive rats (SHR); experiment: Neurological/behavioral score after tMCAO/R; assay type: in vivo, rat; settings: same doses as histology (memantine 90.3, NitroMemantine 65.8 μmol/kg loading), 24-h post stroke
Description: Each adult animal underwent a neurologic evaluation[51] immediately after filament removal and again 1 day after reperfusion (prior to sacrifice). Each animal was assigned an objective behavioral score of 0–4: 0 representing no observable neurological deficit; 1 failure to extend the left forepaw; 2 circling to the left; 3 falling to the left; 4 cannot walk spontaneously. The scores obtained 24-h post stroke were averaged for each time point of each treatment group and presented as the neurological score.

SNO-GluN1 and SNO-Drp1 = experiment: Biotin switch assay of S-nitrosylated proteins in brain after stroke; assay type: in vivo, rat; settings: SHR, loading dose 2-h post occlusion, sacrificed 90 min thereafter
Description: Analysis of S-nitrosylation of NMDA receptors in rat brain was performed by the biotin switch assay, as previously described[48][49]. Free thiols in tissue lysates were blocked with methyl-methanethiosulfonate. Proteins were then precipitated with acetone and resuspended in HEN buffer (250 mM HEPES, pH 7.4, 1 mM EDTA, 0.1 mM neocuproine) plus 1% sodium dodecyl sulfate. Ascorbate was used to selectively reduce nitrosothiols in order to reform free thiol groups, which were subsequently biotinylated using 1 mM biotin-HPDP (Pierce, Rockford, IL). Parallel reactions were performed without ascorbate as a control to ensure specificity of the biotinylated bands. Biotinylated proteins were captured on streptavidin-agarose beads and analyzed by immunoblotting.

[9] = system: NMDAR-operated ion channel; settings: cited from earlier work
[10] = design: method as in PMID 19915593; settings: memantine 90.3 μmol/kg loading, 4.63 μmol/kg maintenance; cited from earlier work

GluN1(N616R)/GluN2A channels, sequence (Q12879 23-1464, other chains not shown): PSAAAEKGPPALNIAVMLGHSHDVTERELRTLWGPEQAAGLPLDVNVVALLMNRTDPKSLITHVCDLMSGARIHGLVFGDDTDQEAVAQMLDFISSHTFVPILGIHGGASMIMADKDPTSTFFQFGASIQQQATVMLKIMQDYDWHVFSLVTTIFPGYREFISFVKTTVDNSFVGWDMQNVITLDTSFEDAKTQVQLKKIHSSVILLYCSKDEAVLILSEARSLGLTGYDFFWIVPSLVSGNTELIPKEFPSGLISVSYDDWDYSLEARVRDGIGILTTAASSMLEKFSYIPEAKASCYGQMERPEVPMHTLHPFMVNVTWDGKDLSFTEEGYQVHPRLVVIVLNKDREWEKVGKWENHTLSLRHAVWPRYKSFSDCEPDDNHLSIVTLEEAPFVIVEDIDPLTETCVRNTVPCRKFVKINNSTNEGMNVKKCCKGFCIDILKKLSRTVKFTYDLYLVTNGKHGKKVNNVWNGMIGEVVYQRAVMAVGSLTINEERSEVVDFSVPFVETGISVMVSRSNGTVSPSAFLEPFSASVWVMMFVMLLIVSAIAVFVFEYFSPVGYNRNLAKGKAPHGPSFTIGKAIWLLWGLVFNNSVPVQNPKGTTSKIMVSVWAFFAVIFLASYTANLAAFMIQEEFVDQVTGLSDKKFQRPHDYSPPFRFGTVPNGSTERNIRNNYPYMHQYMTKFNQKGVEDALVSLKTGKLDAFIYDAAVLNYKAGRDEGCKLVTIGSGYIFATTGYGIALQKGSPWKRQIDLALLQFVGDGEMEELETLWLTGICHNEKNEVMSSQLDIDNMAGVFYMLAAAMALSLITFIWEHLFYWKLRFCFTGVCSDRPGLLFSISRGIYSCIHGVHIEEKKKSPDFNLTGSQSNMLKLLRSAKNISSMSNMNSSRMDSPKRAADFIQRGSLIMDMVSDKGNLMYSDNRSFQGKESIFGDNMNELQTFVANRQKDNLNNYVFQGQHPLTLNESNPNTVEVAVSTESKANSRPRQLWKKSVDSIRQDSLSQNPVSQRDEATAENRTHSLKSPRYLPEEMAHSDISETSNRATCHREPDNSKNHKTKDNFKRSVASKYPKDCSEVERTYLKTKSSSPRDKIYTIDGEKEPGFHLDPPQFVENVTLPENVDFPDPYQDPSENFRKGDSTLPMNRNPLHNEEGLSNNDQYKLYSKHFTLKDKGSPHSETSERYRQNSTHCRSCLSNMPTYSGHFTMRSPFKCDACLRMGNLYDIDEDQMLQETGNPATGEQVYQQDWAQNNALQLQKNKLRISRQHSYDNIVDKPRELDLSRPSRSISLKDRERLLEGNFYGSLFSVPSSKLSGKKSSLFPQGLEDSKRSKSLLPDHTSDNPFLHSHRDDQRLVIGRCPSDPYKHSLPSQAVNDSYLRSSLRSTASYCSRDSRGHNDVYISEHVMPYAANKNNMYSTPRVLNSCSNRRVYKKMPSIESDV
recombinant GluN1/GluN2A receptors, sequence (Q12879 23-1464, other chains not shown): as above

N[C@H](CCCP(=O)(O)O)C(=O)O [D-AP5, (2R)-amino-5-phosphonopentanoate]
block of NMDAR component of the EPSC ([1]; 50 μM, control): completely blocked

C[C@]12N[C@H](Cc3ccccc31)c1ccccc12 [MK-801, reference compound]
effect on LTP induction (LTP in hippocampal CA1): completely inhibited LTP induction

N[C@@H](CSN=O)C(=O)O [SNOC, S-nitrosocysteine, reference compound]
effect of GluN1(N616R) mutation on inhibition of current via S-nitrosylation [2]: did not affect inhibition

CC12CC3(C)CC(N)(C1)CC(O[N+](=O)[O-])(C2)C3 [YQW-035]
steady-state channel block of NMDA current [3]: less channel block than memantine but more than amantadine | IC50 [3]: 6300 nM | effect of GluN1(N616R) mutation on inhibition of current via S-nitrosylation [2]: eliminated inhibition

CCC12CC3(N)CC(CC)(C1)CC(O[N+](=O)[O-])(C3)C2 [YQW-036]
physiological parameters (temperatures, blood pressure, metabolic panel) [4]: not significantly affected | cerebrocortical neuronal apoptosis (TUNEL) (developing cerebrocortex): do not cause | histological protection (infarct size) at equimolar dose [5]: significant benefit | histological protection (infarct, TTC staining) [5]: protected to a greater extent than memantine | histological protection (infarct, TTC staining) ([5]; listed as NitroMemantine): offer histological protection | inhibition of NMDA-evoked current under conditions used to observe S-nitrosylation (GluN1/GluN2A NMDARs; 100 μM, Vh −60 mV): inhibited NMDA-evoked current | prolonged inhibitory effect after prior MTSEA or mutation of redox-active cysteines (GluN1/GluN2A NMDARs; prior addition of MTSEA or mutation of redox-active cysteines in the NMDAR): largely abrogated | Morris water maze performance [6]: not affected | aqueous solubility (Aqueous solubility): lower solubility in aqueous solution | change of EPSC blockade with repeated electrical stimulation (pulses 1–10) ([1]; 10 μM): did not significantly increase | block of NMDAR-mediated component of the EPSC ([1]; 10 μM, 20 μM CNQX present): blocked to a lesser extent | steady-state channel block of NMDA current [3]: approximately the same degree as memantine | inhibition of NMDA-evoked current in the presence of extracellular Mg2+ ([3]; 10 µM, 1.2 mM Mg2+, NMDA 100 µM, holding potential −40 mV): inhibited | IC50 [3]: 2400 nM | effect on LTP induction (LTP in hippocampal CA1): did not inhibit LTP | redox-mediated activity on GluN1(N616R) mutant ([2]; 100 μM): abrogated | blockade of NMDA-evoked current, voltage dependence [7]: approximately equivalent degree of blockade at both –75 mV and less blockade at +30 mV | neurological/behavioral score [8]: showed a protective effect | S-nitrosylation of Drp1 (SNO-Drp1) (SNO-GluN1 and SNO-Drp1): not significantly affected | S-nitrosylation of the GluN1 subunit (SNO-GluN1), ipsilateral to stroke (SNO-GluN1 and SNO-Drp1): significant increase

CCCC12CC3(N)CC(CCC)(C1)CC(O[N+](=O)[O-])(C3)C2 [YQW-037]
aqueous solubility (Aqueous solubility): cannot be dissolved in aqueous solutions

NC12CC3CC(CC(C3)C1)C2 [amantadine, reference compound]
steady-state channel block of NMDA current [3]: inhibited less NMDA current at steady state than equimolar memantine

CC12CC3CC(C)(C1)CC(N)(C3)C2 [memantine]
physiological parameters (temperatures, blood pressure, metabolic panel) [4]: not significantly affected | cerebrocortical neuronal apoptosis (TUNEL) (developing cerebrocortex): do not cause | histological protection (infarct size) at equimolar dose [5]: no significant protection | histological protection (infarct, TTC staining) [5]: offer histological protection | block of NMDAR-mediated component of the EPSC [1]: blocks neurotransmission to a greater degree than NitroMemantine | change of EPSC blockade with repeated electrical stimulation (pulses 1–10) [1]: use-dependent | blockade of NMDA-evoked current, voltage dependence [7]: approximately equivalent degree of blockade at both –75 mV and less blockade at +30 mV | IC50 [9]: 500 to 1000 nM | concentration at the mouth of the NMDAR-associated ion channel [10]: 5 to 10 µM
